ChEMBL document CHEMBL4715742, “Design, synthesis and cytotoxic activities of novel 2,5-diketopiperazine derivatives” (Eur J Med Chem, 2016)

Columns and labels:
K562 [1] = test: Cytotoxicity against human K562 cells assessed as cell viability at 1.1 uM measured after 48 hrs by CCK8 assay relative to control; format: functional; conditions: read-out: Activity
U-937 [2] = test: Cytotoxicity against human U-937 cells assessed as reduction in cell viability at 0.37 to 3.3 uM by CCK8 assay; format: functional, cell-based; conditions: dose 0.37-3.3 µM, TDE = time-dependent effect
K562 [3] = test: Cytotoxicity against human K562 cells assessed as cell viability at 3.3 uM measured after 48 hrs by CCK8 assay relative to control; format: functional; conditions: read-out: Activity
U-937 [4] = test: Induction of apoptosis in human U-937 cells assessed as late apoptotic cells at 0.5 uM measured after 24 hrs by annexinV/FITC-propidium iodide staining based flow cytometry (reference value: 2.18 to 2.22 %); format: functional
U-937 [5] = test: Induction of apoptosis in human U-937 cells assessed as necrotic cells at 2 uM measured after 48 hrs by annexinV/FITC-propidium iodide staining based flow cytometry (reference value: 0.794 to 0.955 %); format: functional
HeLa = test: Cytotoxicity against human HeLa cells assessed as reduction in cell viability measured after 72 hrs by CCK8 assay; format: functional, cell-based; conditions: Homo sapiens, HeLa, 72 h; read-out: IC50
K562 [6] = test: Cytotoxicity against human K562 cells assessed as cell viability at 3.3 uM measured after 72 hrs by CCK8 assay relative to control; format: functional; conditions: read-out: Activity
U-937 [7] = test: Induction of apoptosis in human U-937 cells assessed as necrotic cells at 0.5 uM measured after 24 hrs by annexinV/FITC-propidium iodide staining based flow cytometry (reference value: 1.12 to 1.48 %); format: functional
U-937 [8] = test: Induction of apoptosis in human U-937 cells assessed as apoptotic ratio at 1 uM measured after 48 hrs by annexinV/FITC-propidium iodide staining based flow cytometry (reference value: 5.2 +/- 0.2 %); format: functional
U-937 [9] = test: Induction of apoptosis in human U-937 cells assessed as necrotic cells at 1 uM measured after 48 hrs by annexinV/FITC-propidium iodide staining based flow cytometry (reference value: 0.794 to 0.955 %); format: functional
U-937 [10] = test: Induction of apoptosis in human U-937 cells assessed as necrotic cells at 0.5 uM measured after 48 hrs by annexinV/FITC-propidium iodide staining based flow cytometry (reference value: 0.794 to 0.955 %); format: functional
U-937 [11] = test: Cytotoxicity against human U-937 cells assessed as cell viability at 1.1 uM measured after 24 hrs by CCK8 assay relative to control; format: functional; conditions: read-out: Activity
HL-60 = test: Cytotoxicity against human HL-60 cells assessed as reduction in cell viability measured after 72 hrs by CCK8 assay; format: functional, cell-based; conditions: Homo sapiens, HL-60, 72 h; read-out: IC50
U-937 [12] = test: Induction of apoptosis in human U-937 cells assessed as early apoptotic cells at 0.5 uM measured after 48 hrs by annexinV/FITC-propidium iodide staining based flow cytometry (reference value: 1.78 to 1.88 %); format: functional
U-937 [13] = test: Cytotoxicity against human U-937 cells assessed as cell viability at 1.1 uM measured after 72 hrs by CCK8 assay relative to control; format: functional; conditions: read-out: Activity
U-937 [14] = test: Induction of apoptosis in human U-937 cells assessed as late apoptotic cells at 2 uM measured after 24 hrs by annexinV/FITC-propidium iodide staining based flow cytometry (reference value: 2.18 to 2.22 %); format: functional
U-937 [15] = test: Cytotoxicity against human U-937 cells assessed as cell viability at 3.3 uM measured after 24 hrs by CCK8 assay relative to control; format: functional; conditions: read-out: Activity
U-937 [16] = test: Induction of apoptosis in human U-937 cells assessed as necrotic cells at 1 uM measured after 24 hrs by annexinV/FITC-propidium iodide staining based flow cytometry (reference value: 1.12 to 1.48 %); format: functional
U-937 [17] = test: Induction of apoptosis in human U-937 cells assessed as viable cells at 0.5 uM measured after 48 hrs by annexinV/FITC-propidium iodide staining based flow cytometry (reference value: 93.7 to 94.2 %); format: functional; conditions: read-out: Activity
U-937 [18] = test: Induction of apoptosis in human U-937 cells assessed as viable cells at 0.5 uM measured after 24 hrs by annexinV/FITC-propidium iodide staining based flow cytometry (reference value: 95 to 95.1 %); format: functional; conditions: read-out: Activity
U-937 [19] = test: Cytotoxicity against human U-937 cells assessed as cell viability at 1.1 uM measured after 48 hrs by CCK8 assay relative to control; format: functional; conditions: read-out: Activity
U-937 [20] = test: Induction of apoptosis in human U-937 cells assessed as early apoptotic cells at 0.5 uM measured after 24 hrs by annexinV/FITC-propidium iodide staining based flow cytometry (reference value: 1.28 to 1.68 %); format: functional
U-937 [21] = test: Induction of apoptosis in human U-937 cells assessed as early apoptotic cells at 1 uM measured after 48 hrs by annexinV/FITC-propidium iodide staining based flow cytometry (reference value: 1.78 to 1.88 %); format: functional
U-937 [22] = test: Cytotoxicity against human U-937 cells assessed as cell viability at 3.3 uM measured after 48 hrs by CCK8 assay relative to control; format: functional; conditions: read-out: Activity
K562 [23] = test: Cytotoxicity against human K562 cells assessed as reduction in cell viability measured after 72 hrs by CCK8 assay; format: functional, cell-based; conditions: Homo sapiens, K562, 72 h; read-out: IC50
K562 [24] = test: Cytotoxicity against human K562 cells assessed as reduction in cell viability measured after 24 to 72 hrs by CCK8 assay; format: functional, cell-based; conditions: dose 0.37-3.3 µM, time 24-72 hrs
U-937 [25] = test: Induction of apoptosis in human U-937 cells assessed as apoptotic ratio at 0.5 uM measured after 48 hrs by annexinV/FITC-propidium iodide staining based flow cytometry (reference value: 5.2 +/- 0.2 %); format: functional
K562 [26] = test: Cytotoxicity against human K562 cells assessed as cell viability at 1.1 uM measured after 72 hrs by CCK8 assay relative to control; format: functional; conditions: read-out: Activity
A549 = test: Cytotoxicity against human A549 cells assessed as reduction in cell viability measured after 72 hrs by CCK8 assay; format: functional, cell-based; conditions: Homo sapiens, A549, 72 h; read-out: IC50
U-937 [27] = test: Induction of apoptosis in human U-937 cells assessed as necrotic cells at 2 uM measured after 24 hrs by annexinV/FITC-propidium iodide staining based flow cytometry (reference value: 1.12 to 1.48 %); format: functional
U-937 [28] = test: Induction of apoptosis in human U-937 cells assessed as viable cells at 2 uM measured after 24 hrs by annexinV/FITC-propidium iodide staining based flow cytometry (reference value: 95 to 95.1 %); format: functional; conditions: read-out: Activity
U-937 [29] = test: Cytotoxicity against human U-937 cells assessed as cell viability at 3.3 uM measured after 72 hrs by CCK8 assay relative to control; format: functional; conditions: read-out: Activity
K562 [30] = test: Cytotoxicity against human K562 cells assessed as cell viability at 0.37 uM measured after 72 hrs by CCK8 assay relative to control; format: functional; conditions: read-out: Activity
U-937 [31] = test: Cytotoxicity against human U-937 cells assessed as reduction in cell viability measured after 24 to 72 hrs by CCK8 assay; format: functional, cell-based; conditions: dose 0.37-3.3 µM, time 24-72 hrs
U-937 [32] = test: Induction of apoptosis in human U-937 cells assessed as late apoptotic cells at 2 uM measured after 48 hrs by annexinV/FITC-propidium iodide staining based flow cytometry (reference value: 3.27 to 3.41 %); format: functional

In the case of `C=CCn1c(=O)/c(=C/CCCC)[nH]c(=O)/c1=C/c1ccc(OC)cc1`, the viability at 1.1 µM (K562 [1]) is reported as 28.7%, the Activity (U-937 [2]) is reported as “Tde” and the viability at 3.3 µM (K562 [3]) is reported as 8.6%. The Activity (U-937 [4]) was 6.11%, the Activity (U-937 [5]) was 1.26% and the IC50 (HeLa) was 900 nM. The viability at 3.3 µM (K562 [6]) was 3.5%, the Activity (U-937 [7]) was 1.07% and the Activity (U-937 [8]) was 25.8%. It also gave an Activity (U-937 [9]) of 1.04%, an Activity (U-937 [10]) of 1.05% and a viability at 1.1 µM (U-937 [11]) of 17.4%. The IC50 (HL-60) was 900 nM, the Activity (U-937 [12]) was 7.77% and the viability at 1.1 µM (U-937 [13]) was 3.3%. For the same compound, the Activity (U-937 [14]) was 10.3%, the viability at 3.3 µM (U-937 [15]) was 1.6% and the Activity (U-937 [16]) was 1.13%. It also gave a viability at 0.5 µM (U-937 [17]) of 81.4%, a viability at 0.5 µM (U-937 [18]) of 88.4% and a viability at 1.1 µM (U-937 [19]) of 8.8%. The Activity (U-937 [20]) was 4.09%, the Activity (U-937 [21]) was 10.8% and the viability at 3.3 µM (U-937 [22]) was 0%. For the same compound, the IC50 (K562 [23]) was 600 nM, the Activity (K562 [24]) was “Dose-dependent effect” and the Activity (U-937 [25]) was 16.7%. For the same compound, the viability at 1.1 µM (K562 [26]) was 17.3%, the IC50 (A549) was 1700 nM and the Activity (U-937 [27]) was 1.22%. For the same compound, the viability at 2 µM (U-937 [28]) was 77.9%, the viability at 3.3 µM (U-937 [29]) was 0% and the viability at 0.37 µM (K562 [30]) was 86.2%. For the same compound, the Activity (U-937 [31]) was “Dose-dependent effect” and the Activity (U-937 [32]) was 35.1%.
